Data as given in ChEMBL document CHEMBL1141786, “Microbial transformation of curvularin” (J Nat Prod, 2005).
The source made the active and inactive calls.

Columns and labels:
Type in all cases: functional, cell-based
SF-268 = assay: Cytotoxicity against human SF268 cells upto 10 ug/mL by MTT assay
MCF7 = assay: Cytotoxicity against human MCF7 cells upto 10 ug/mL by MTT assay
NCI-H460 = assay: Cytotoxicity against human NCI-H460 cells upto 10 ug/mL by MTT assay

Measured: Activity

CO[C@H]1[C@H](O)[C@@H](O)[C@H](Oc2c(O)cc3c(c2O)C(=O)CCCCC[C@H](C)OC(=O)C3)O[C@@H]1CO
inactive: SF-268 | MCF7 | NCI-H460

CO[C@H]1[C@H](O)[C@@H](O)[C@H](Oc2cc(O)cc3c2C(=O)CCCCC[C@H](C)OC(=O)C3)O[C@@H]1CO
inactive: SF-268 | MCF7 | NCI-H460

C[C@H]1CCCCCC(=O)c2c(cc(O)cc2O[C@@H]2O[C@H](CO)[C@@H](O)[C@H](O)[C@H]2O)CC(=O)O1
inactive: SF-268 | MCF7 | NCI-H460
